Assay results: patent US11413278B2, “Compounds and methods for promoting stress resistance” (priority 2015, dated 2022)
Read-outs that look alike come from different tables or passages of the source.

Experiments:
[1] = test system: phosphorylated γH2A.X and TP53BP1; experiment: DNA damage marker analysis (immuno-staining); conditions: for activity at 10 µM: Homo sapiens, WI-38, 24 h; for P = Potential DNA-damaging / R = Potential DNA damaging: human, 24 h
Outline: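 Immunofluorescence read-out for phospho-γH2A.X (Ser-139) and phospho-TP53BP1 (Ser-1778), with DAPI nuclear stain and automated imaging at 10×. WI-38 cells (~8,000 per well) were exposed to small molecules for 24 h after 24 h of culture, with doxorubicin (300 nM, 24 h) or H2O2 (700 μM, 3 h) as positive damage controls.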

[2] = test system: PC12 cells expressing poly(Q)103-Htt-EGFP; experiment: Poly(Q) toxicity & viability analysis (cellular model of Huntington's disease); assay type: cell-based, rat; conditions: for M = Huntington's poly-Q toxicity attenuation: score; for K = Huntington's poly-Q toxicity attenuation: summary score
Outline: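 Readout is CellTiter-Glo ATP content measured after 48 hrs. Cells are a PC12 line stably expressing inducible poly(Q)103-Htt-EGFP, where induction produces toxic aggregates.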

[3] = test system: C. elegans; experiment: C. elegans lifespan assays (liquid and plate); assay type: in vivo, Caenorhabditis elegans; conditions: for ILS at 66 µM / ILS at 60 µM: Caenorhabditis elegans; for Extension of C. elegans' lifespan (qualitative): in at least 3 to 4 trials, group range ~10% to ~50%; for O = Life span- extending scores in worms: score scale 0 to 2, 4 to 6 independent trials; for M = Lifespan-extending scores in worms: summary score
[4] = test system: WI-38 cells; experiment: MMS resistance assay; assay type: cell-based, human; conditions: for fold induction at 10 µM: Homo sapiens, 12 h, normalized ATP measurement; for Assay 3: MMS-resistant / Assay 5: Triple resistant: YES/NO; for Assay 3: MMS-resistant: * indicates partial; for Assay 5: Triple resistant: H2O2, cadmium and MMS
Outline: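 Resistance to CdCl2 or MMS stress (12 h exposure) was scored in WI-38 fibroblasts pretreated with compound at 0.25–20 μM final, five doses, technical triplicates. MMS plates had compound added 24 h before MMS, after a shift to serum-free DMEM+2% BSA. Significance came from a global variance t-test over two independent runs.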

[5] = test system: WI-38 cells; conditions: for No H2O2 stress treatment, at 10 uM (fold change): normalized ATP measurement; for Assay 1: H2O2-resistant: YES/NO, if NO, possibly due to repeated freezing/thawing of stocks
[6] = target: T1, human PARP1 (Homo sapiens, UniProt P09874); experiment: PARP inhibitor assay (HT Fluorescent Homogeneous PARP Inhibition Assay Kit); assay type: biochemical; conditions: score
T1 construct: purchased Trevigen
T1 sequence (P09874 whole entry): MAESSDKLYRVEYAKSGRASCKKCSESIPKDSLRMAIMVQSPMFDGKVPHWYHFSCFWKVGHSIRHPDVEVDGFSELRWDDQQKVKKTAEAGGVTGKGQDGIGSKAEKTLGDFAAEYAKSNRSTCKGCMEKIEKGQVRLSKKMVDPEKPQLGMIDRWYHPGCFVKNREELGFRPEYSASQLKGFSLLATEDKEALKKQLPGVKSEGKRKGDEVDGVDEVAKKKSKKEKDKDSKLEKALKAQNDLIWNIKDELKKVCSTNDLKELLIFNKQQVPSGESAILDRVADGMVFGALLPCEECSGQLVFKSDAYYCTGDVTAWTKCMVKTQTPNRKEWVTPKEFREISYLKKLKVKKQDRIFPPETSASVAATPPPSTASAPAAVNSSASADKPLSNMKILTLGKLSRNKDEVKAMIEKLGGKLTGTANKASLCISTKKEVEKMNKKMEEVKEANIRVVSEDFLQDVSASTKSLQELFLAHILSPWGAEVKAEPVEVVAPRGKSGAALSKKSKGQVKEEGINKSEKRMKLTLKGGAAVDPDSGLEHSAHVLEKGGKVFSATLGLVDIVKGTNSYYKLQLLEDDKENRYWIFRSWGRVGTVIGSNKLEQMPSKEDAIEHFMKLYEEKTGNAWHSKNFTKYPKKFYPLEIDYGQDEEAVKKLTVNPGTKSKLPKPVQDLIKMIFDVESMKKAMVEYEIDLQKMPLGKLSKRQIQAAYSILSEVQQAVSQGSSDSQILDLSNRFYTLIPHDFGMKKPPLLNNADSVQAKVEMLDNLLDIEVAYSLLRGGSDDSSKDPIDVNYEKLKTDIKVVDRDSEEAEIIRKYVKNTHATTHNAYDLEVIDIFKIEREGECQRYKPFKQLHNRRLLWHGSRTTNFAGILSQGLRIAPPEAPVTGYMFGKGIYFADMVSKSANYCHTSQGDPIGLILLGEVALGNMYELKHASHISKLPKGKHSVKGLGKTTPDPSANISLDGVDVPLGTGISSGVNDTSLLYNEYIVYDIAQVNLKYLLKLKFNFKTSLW
Outline: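 Compounds (10 μM final) incubated 30 min, room temperature, dark, with human PARP1, nicotinamide adenine dinucleotide and activated DNA. Fluorescent signal generated by 1 hr cycling with diaphorase and resazurin, then reaction stopped.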

[7] = read-out: Experiment 1, H2A.X-P DNA damage foci staining (no H2O2 stress treatment), at 10 uM
[8] = read-out: Experiment 2, H2A.X-P DNA damage foci staining (no H2O2 stress treatment), at 10 uM
[9] = read-out: Experiment 2, H2A.X-P DNA damage foci staining (under H2O2 stress treatment), at 10 uM
[10] = read-out: Experiment 2, TP53BP1-P DNA damage foci staining (no H2O2 stress treatment), at 10 uM
[11] = read-out: Experiment 2, TP53BP1-P DNA damage foci staining (under H2O2 stress treatment), at 10 uM
[12] = Assay 2(z), 1.0 × 10^9 bacteria/ml, wild type + FuDR (2012 July), read-out: Lifespan assay in liquid
[13] = Assay 3(aa), 2.5 × 10^9 bacteria/ml, wild type + FuDR, read-out: Lifespan assay in liquid
[14] = Assay 4(ab), 2.0 × 10^10 bacteria/ml, CF512 worms, no FuDR, read-out: Lifespan assay on plates
[15] = Assay 5(ac), 1.0 × 10^11 bacteria/ml, CF512 worms, no FuDR, read-out: Lifespan assay on plates
[16] = Exp. 1, WI-38 cells, read-out: Exp. 1, under MMS stress treatment, at 10 uM (fold change)
[17] = Exp. 2, WI-38 cells, read-out: Exp. 2, under MMS stress treatment, at 10 uM (fold change)
[18] = score in summary of 38 core set hits
[19] = WI-38 cells, 10 μM, (*) = compromised ability to protect cells from H2O2, could be due to stability issue
[20] = asterisks indicate the loss of the ability to protect cells from H2O2 over time
[21] = derived from dose response curves, 0.6-20 uM, H2O2-resistance of WI-38 cells
[22] = read-out: Est. ED50, dose response 0.6-20 μM, H2O2-resistance

SMILES: O=[N+]([O-])c1ccccc1S(=O)(=O)Nc1cccc2cccnc12 [Gr-3A]
- activity at 10 µM [1, 7]: 139%
- activity at 10 µM [1, 8]: 338%
- activity at 10 µM [1, 9]: 143%
- activity at 10 µM [1, 10]: 334%
- activity at 10 µM [1, 11]: 66.1%
- P = Potential DNA-damaging [1]: 1
- R = Potential DNA damaging [1]: 1
- M = Huntington's poly-Q toxicity attenuation [2]: 0
- K = Huntington's poly-Q toxicity attenuation [2]: 0
- ILS at 66 µM [3, 12]: 33.4%
- ILS at 66 µM [3, 13]: 14.2%
- ILS at 66 µM [3, 14]: 16.3%
- ILS at 66 µM [3, 15]: 8.4%
- Extension of C. elegans' lifespan (qualitative) [3]: could extend animal's lifespan
- O = Life span- extending scores in worms [3]: 2 (2 for observed in more than 2 trials)
- M = Lifespan-extending scores in worms [3]: 2 (2 for observed in more than 2 trials)
- fold induction at 10 µM [4, 16]: 1
- fold induction at 10 µM [4, 17]: 0.86
- Assay 3: MMS-resistant [4]: YES
- Assay 5: Triple resistant [4]: YES
- B = MMS resistant [4, 18]: 0
- B = MMS resistant ([4]; summary score): 1
- D = Triple resistant ([4]; summary score): 2
- H2O2-resistant [5, 19]: YES
- No H2O2 stress treatment, at 10 uM (fold change) ([5]; WI-38 cells): 0.98 fold change
- Assay 1: H2O2-resistant [5]: YES
- H2O2-resistant [5, 20]: YES
- EC50 [5, 21]: 11.2 µM
- EC50 [5, 22]: 4.21 µM
- L = PARP inhibition [6]: 0

SMILES: O=C(/C(=C/c1ccc(Cl)cc1)c1nc2ccccc2[nH]1)c1ccccc1 [Gr-4D]
- activity at 10 µM [1, 7]: 103%
- activity at 10 µM [1, 8]: 49.6%
- activity at 10 µM [1, 9]: 123%
- activity at 10 µM [1, 10]: 136%
- activity at 10 µM [1, 11]: 388%
- P = Potential DNA-damaging [1]: 0
- R = Potential DNA damaging [1]: 0
- M = Huntington's poly-Q toxicity attenuation [2]: 0
- K = Huntington's poly-Q toxicity attenuation [2]: 0
- relative change of mean lifespan vs control, Trial 6 (confirmative) ([3]; 60 μM, on plate, temperature-sensitive sterile animals, without FuDR, 1.0 × 10^11 bacteria/ml): +11.1%
- relative change of mean lifespan vs control, Trial 5 (confirmative) ([3]; 60 μM, on plate, temperature-sensitive sterile animals, without FuDR, 2.0 × 10^10 bacteria/ml): +39.4%
- Lifespan, average increase ([3]; 4 or more trials): 24.0%
- ILS at 60 µM ([3]; 60 μM, in liquid, wild type, with FuDR, 1.0 × 10^9 bacteria/ml, read-out: relative change of mean lifespan vs control, Trial 1): 50.8%
- ILS at 60 µM ([3]; 60 μM, in liquid, wild type, with FuDR, 2.5 × 10^9 bacteria/ml, read-out: relative change of mean lifespan vs control, Trial 2): 9%
- ILS at 60 µM ([3]; 60 μM, on plate, CF512 temperature-sensitive sterile animals, without FuDR, 1.0 × 10^11 bacteria/ml, read-out: relative change of mean lifespan vs control, Trial 4): 11.3%
- ILS at 60 µM ([3]; 60 μM, on plate, CF512 temperature-sensitive sterile animals, without FuDR, 2.0 × 10^10 bacteria/ml, read-out: relative change of mean lifespan vs control, Trial 3): 22.2%
- ILS at 66 µM [3, 12]: 50.8%
- ILS at 66 µM [3, 13]: 9%
- ILS at 66 µM [3, 14]: 22.2%
- ILS at 66 µM [3, 15]: 11.3%
- ILS at 66 µM ([3]; Assay 6(ad), 2.0 × 10^10 bacteria/ml, CF512 worms, no FuDR, read-out: Lifespan assay on plates): 39.4%
- ILS at 66 µM ([3]; Assay 7(ae), 1.0 × 10^11 bacteria/ml, CF512 worms, no FuDR, read-out: Lifespan assay on plates): 11.1%
- Lifespan extension of C. elegans ([3]; across independent trials): ≤ 50%
- Extension of C. elegans' lifespan (qualitative) [3]: could extend animal's lifespan
- Trials with lifespan extension ([3]; positive of total trials): 4 of 4
- O = Life span- extending scores in worms [3]: 2 (2 for observed in more than 2 trials)
- M = Lifespan-extending scores in worms [3]: 2 (2 for observed in more than 2 trials)
- Lifespan, mean (FIG. 6B) ([3]; temperature-sensitive sterile rollers, on plate, without FuDR, 25° C. then ~22° C., control 18.4±0.4): 22.5±0.4
- Lifespan increase (FIG. 6A) ([3]; wild-type, in liquid, with FuDR, 20° C., ~60 μM): ~51.2%
- Lifespan, mean±SD (FIG. 6A) ([3]; wild-type, in liquid, with FuDR, 20° C., ~60 μM, control 21.1±0.5): 31.9±1.1
- fold induction at 10 µM [4, 16]: 1.72
- fold induction at 10 µM [4, 17]: 1.33
- Assay 3: MMS-resistant [4]: YES
- Assay 5: Triple resistant [4]: YES
- B = MMS resistant [4, 18]: 0
- B = MMS resistant ([4]; summary score): 1
- D = Triple resistant ([4]; summary score): 2
- H2O2-resistant [5, 19]: YES
- No H2O2 stress treatment, at 10 uM (fold change) ([5]; WI-38 cells): 1.11 fold change
- Assay 1: H2O2-resistant [5]: YES
- H2O2-resistant [5, 20]: YES
- EC50 [5, 21]: 10.6 µM
- EC50 [5, 22]: 8.9 µM
- L = PARP inhibition [6]: 0
